Read-outs that look alike come from different tables or passages of the source. Values belong to the compound of their own block, whether it stands above or below them.
Tests used:
[1] = type: in vitro ADME, pig; details: not told
Protocol: FITC labeled chitosan NPs were used.
b) Ethanol (100% Ethanol diluted with 50% PBS) c) 2-Dimethylaminopropionic acid dodecyl ester (DDAIP) (“DDAIP”) (2 g/100 ml diluted in PBS) d) Ethanol+DDAIP (100% Ethanol diluted with 4 g/100 ml of DDAIP to achieve the same final working concentration of Ethanol and DDAIP as used in (b) and (c) respectively. e) TDCA (100 mM diluted in PBS)
Fresh pig tongue was obtained from the Butcher shop at Cambridge. The middle portion of the tongue was selected for these studies. 5 designated sections were chosen on this portion and 0.75 mL of each of these PEs were applied at each of these sections, followed by the addition of the wafers (25 mg each) with additional 0.75 mL of PEs on top of the wafers. The incubation was done in the dark at RT for 1 hour. The tongue was then washed with water and all the wafers were removed from their designated sections. The respective sections were individually cut and embedded into an OCT for sectioning using a microtome. 50 microns slices were cut from each of these sections and 2 slices were placed on slides. The slides were kept submerged in water for 3 hours to remove any bound OCT as it interferes with the image quality. Following that, each of the slides from different sections were mounted with cover slips using a DAPI containing mounting media and imaged using a fluorescence microscope. Images were taken at 4×, 10× and 20× in both FITC and DAPI channels. In addition, slices of untreated tongue were also cut and imaged to account for inherent fluorescence of the tongue. However, before conducting permeation studies, many experiments were performed to discover the optimal concentrations of PEs that would not result in significant modifications to out current wafer synthesis protocol and allow seamless integration into the wafer.

[2] = test system: hamster cheek pouch carcinoma (HCPC1) tumors; assay: Tumor inhibition and weight change in HCPC1 allografted hamsters; type: in vivo, Golden Syrian hamsters; details: 1.15 mg/kg cisplatin equivalent; sponge topically, free cisplatin intraperitoneally
Protocol: Golden Syrian hamsters, 71-80 g, were anesthetized and prepared for implantation of the tumor cells. Hamster cheek pouch carcinoma (HCPC 1) cells were collected from culture, and 1×10^8 cells suspended in PBS buffer were then injected subcutaneously into the cheek pouch of a hamster. After 7 days when tumors reached around 100 mm^3 in size, hamsters were divided into 4 groups, minimizing weight and tumor size difference. […] Two doses were administrated with 3-day interval. After treatments, the animals were monitored closely, and measurements of the tumor size and body weight for each animal were performed at regular intervals using calipers without knowledge of which injection each animal had received. The tumor volume for each time point was calculated according to the formula, (length)×(width)^2/2, where the long axis is the length, the short axis is the width.

[3] = test system: HCPC 1 (hamster cheek pouch carcinoma) cells; assay: MTS cell viability assay; type: cell-based; details: HCPC 1 cells, 48 h
Protocol: A cell viability study of 33% cisplatin-loaded nanoparticles was also conducted using the tetrazolium compound (3-(4,5-dimethylthiazol-2-yl)-5-(3-carboxymethoxy phenyl)-2-(4-sulfophenyl)-2H-tetrazolium inner salt, MTS. When incorporated by the cells, MTS is bioreduced by metabolically active cells. The amount of […] is directly proportional to the number of living cells in culture.

Permeation Depth ([1]; pig, 1 hour): 200 microns
depth permeated by the NPs ([1]; pig, 1 hour, 2 g/100 ml): 200 μm
Structure (SMILES): CCCCCCCCCCCCOC(=O)C(C)N(C)C (stereo not shown) [DDAIP, 2-Dimethylaminopropionic acid dodecyl ester]

Permeation Depth ([1]; pig, 1 hour): 140 microns
Structure (SMILES): CCO [Ethanol]

Permeation Depth [1]: 100 microns
Structure (SMILES): C[C@H](CCC(=O)NCCS(=O)(=O)O)[C@H]1CC[C@H]2[C@@H]3CC[C@@H]4C[C@H](O)CC[C@]4(C)[C@H]3C[C@H](O)[C@]12C [TDCA]

Structure (SMILES): N.N.[Cl][Pt][Cl] [free cisplatin, cis-diamminedichloroplatinum(ll)]
tumor inhibition [2]: comparable decrease in tumor size
weight change [2]: significant weight loss
IC50 [3]: ~60 nM

— patent US20140234212A1, “Targeted Buccal Delivery of Agents” (Massachusetts Institute of Technology, priority 2013, published 2014)
